The values that follow come from ChEMBL document CHEMBL1128976, “Unsaturated thioacetic acids as novel mechanism-based inhibitors of peptidylglycine -hydroxylating monooxygenase” (Bioorg Med Chem Lett, 1996).

The target of the assay is T1, Peptidyl-glycine alpha-amidating monooxygenase (Homo sapiens) (UniProt P19021).
T1 sequence (whole entry): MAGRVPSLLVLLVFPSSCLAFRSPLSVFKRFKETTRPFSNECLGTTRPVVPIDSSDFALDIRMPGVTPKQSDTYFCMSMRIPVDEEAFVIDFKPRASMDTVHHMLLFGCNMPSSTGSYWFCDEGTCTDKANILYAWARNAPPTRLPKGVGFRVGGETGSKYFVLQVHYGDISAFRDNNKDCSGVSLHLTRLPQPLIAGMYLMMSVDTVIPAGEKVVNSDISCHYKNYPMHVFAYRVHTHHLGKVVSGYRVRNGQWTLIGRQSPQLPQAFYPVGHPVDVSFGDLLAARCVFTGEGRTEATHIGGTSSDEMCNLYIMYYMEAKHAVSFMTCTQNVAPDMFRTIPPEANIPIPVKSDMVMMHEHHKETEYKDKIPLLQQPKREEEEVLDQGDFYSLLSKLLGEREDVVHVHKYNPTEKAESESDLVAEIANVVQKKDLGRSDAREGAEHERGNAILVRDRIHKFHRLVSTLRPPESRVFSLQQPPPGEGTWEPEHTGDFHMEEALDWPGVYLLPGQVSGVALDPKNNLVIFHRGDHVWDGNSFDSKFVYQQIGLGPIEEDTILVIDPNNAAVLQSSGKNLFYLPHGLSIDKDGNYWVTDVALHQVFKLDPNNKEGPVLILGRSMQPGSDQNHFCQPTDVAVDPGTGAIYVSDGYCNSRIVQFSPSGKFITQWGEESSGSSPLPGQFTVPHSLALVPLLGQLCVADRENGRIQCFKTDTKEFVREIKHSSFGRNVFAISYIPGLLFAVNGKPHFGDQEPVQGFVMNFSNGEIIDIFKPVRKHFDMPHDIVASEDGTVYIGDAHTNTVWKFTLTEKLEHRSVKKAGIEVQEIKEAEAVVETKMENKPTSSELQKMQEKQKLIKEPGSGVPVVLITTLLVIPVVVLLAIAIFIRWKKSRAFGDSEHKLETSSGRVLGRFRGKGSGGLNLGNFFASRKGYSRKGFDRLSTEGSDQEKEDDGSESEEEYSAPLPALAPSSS
Put plainly: Kinetic constant for inhibition of peptidylglycine alpha hydroxylating monooxygenase (PHM) was determined. The settings on record: Equus caballus.

Consider `O=C(O)CSC#Cc1ccccc1`, for which the K inact stood at 0.06 min⁻¹. For `O=C(O)CS/C=C/c1ccccc1` the value was 0.2 min⁻¹.
